According to ChEMBL document CHEMBL2434832, “Structure-based identification of novel PPAR gamma ligands” (Bioorg Med Chem Lett, 2013):

Legend:
[1] = molecular target: T1, Peroxisome proliferator-activated receptor gamma (Homo sapiens) (UniProt P37231); assay: Binding affinity to human PPARgamma LBD expressed in Escherichia coli BL21 DE3 assessed as melting temperature at 33 uM after 2 hrs using SYPRO orange dye
T1 sequence (whole entry): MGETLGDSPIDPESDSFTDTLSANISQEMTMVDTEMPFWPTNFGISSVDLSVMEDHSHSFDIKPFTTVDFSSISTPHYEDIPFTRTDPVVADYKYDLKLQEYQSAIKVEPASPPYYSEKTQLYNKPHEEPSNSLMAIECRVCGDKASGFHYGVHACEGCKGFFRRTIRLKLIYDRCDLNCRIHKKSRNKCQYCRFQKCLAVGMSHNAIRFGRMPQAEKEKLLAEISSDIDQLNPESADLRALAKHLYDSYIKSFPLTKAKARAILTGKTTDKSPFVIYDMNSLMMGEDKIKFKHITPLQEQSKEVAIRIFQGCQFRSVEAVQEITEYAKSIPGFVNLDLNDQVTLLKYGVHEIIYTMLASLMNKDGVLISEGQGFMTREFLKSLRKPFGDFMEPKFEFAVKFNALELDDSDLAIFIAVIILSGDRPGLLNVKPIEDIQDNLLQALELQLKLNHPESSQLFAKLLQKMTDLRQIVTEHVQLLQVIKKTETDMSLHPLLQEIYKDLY

[2] = Solubility of the compound in DMSO; assay type: physicochemical
[3] = molecular target: T2, Peroxisome proliferator-activated receptor gamma (Homo sapiens, UniProt P37231); assay: Displacement of fluormone from human PPARgamma LBD expressed in Escherichia coli BL21 DE3 by fluorescence polarization assay
T2 sequence (P37231 whole entry): T1 sequence (whole entry)

| Compound | Tm [1] [°C] | solubility [2] | IC50 [3] [nM] |
| --- | --- | --- | --- |
| Cc1ccc(S(=O)(=O)Cc2noc(CCC(=O)O)n2)cc1 | 46 | soluble |  |
| Cc1c(/C=C2\SC(Nc3cccc(C(=O)O)c3)=NC2=O)c2ccccc2n1C | 46 | soluble |  |
| Cc1ccc(Cn2c(=N)n(CC(=O)O)c3ccccc32)cc1 | 46 | soluble |  |
| O=C(O)Cn1c(SCCOc2ccc3ccccc3c2)nc2ccccc21 | 46 | soluble | 2220 |
| O=C(Nc1ccc(C(=O)O)cc1)/C(=C\c1ccc2c(c1)OCO2)NC(=O)c1ccc(Br)o1 | 46 | soluble |  |
| CN(CCOc1ccc(CC2SC(=O)NC2=O)cc1)c1ccccn1 (configuration not stated) | 49 |  |  |
| O=C(O)Cn1ccc2cc(OCc3ccccc3)ccc21 | 46 | soluble |  |
| O=C(O)c1ccc(-n2nnnc2SCc2ccccc2Br)cc1 | 46 | soluble | 5130 |
| CSc1ccccc1-n1nnnc1SCC(=O)O | 46 | soluble |  |
| O=C(CN1C(=O)c2ccccc2C1=O)NCc1ccc(C(=O)O)cc1 | 46 | soluble |  |
| CN1CCN(S(=O)(=O)c2ccc(SCC(=O)O)nc2)CC1 |  | Insoluble |  |
| CCOc1cc(/C=C2/SC(Nc3cccc(C(=O)O)c3)=NC2=O)ccc1OC |  | Insoluble |  |
| O=C(O)c1ccc(COc2ccccc2C=C2C(=O)c3ccccc3C2=O)cc1 | 53 | soluble | 1140 |
| COc1cccc(/C=C2\SC(=S)N(CCCC(=O)N3CCC(C(=O)O)CC3)C2=O)c1 | 49 | soluble |  |
| C[C@@H](Oc1ccc(/C=C2/C(=O)N=C(O)N(c3cccc(Br)c3)C2=O)cc1)C(=O)O | 46 | soluble |  |
| Cc1ccccc1Nc1nc(N)nc(CSc2nc3ccccc3c(=O)[nH]2)n1 | 46 | soluble |  |
